# PubChem BioAssay (NCI)
#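 These data come from cells grown in 96-well plates and exposed to compound for 48 hours at five concentrations. TGI is the concentration that stops growth completely.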
# How the values were obtained:
# Assay in all cases: NCI anticancer screen, dose series, 48 h
# [1] = system: OVCAR-5 ovarian
# [2] = system: K-562 leukemia
# [3] = system: SR leukemia
# [4] = system: OVCAR-8 ovarian
# [5] = system: MDA-N
# [6] = system: OVCAR-3 ovarian
# [7] = system: A549 NSCLC
# [8] = system: PC-3 prostate
# [9] = system: MOLT-4 leukemia
# [10] = system: UACC-62 melanoma
# [11] = system: U251 CNS
# [12] = system: SK-MEL-2 melanoma
# [13] = system: RXF 393 renal
# [14] = system: SF-295 CNS
# [15] = system: NCI-H460 lung
# [16] = system: SNB-19 CNS
# [17] = system: HL-60(TB) leukemia
# [18] = system: IGROV1 ovarian
# [19] = system: SF-539 CNS
# [20] = system: MDA-MB-435
# [21] = system: SNB-75 CNS
# [22] = system: SK-OV-3 ovarian
# [23] = system: DU-145 prostate
# [24] = system: SN12C renal
# [25] = system: T-47D breast
# [26] = system: M14 melanoma
# [27] = system: SK-MEL-28 melanoma
# [28] = system: MALME-3M melanoma
# [29] = system: HOP-62 NSCLC
# [30] = system: HOP-92 NSCLC
# [31] = system: COLO 205 colon
# [32] = system: BT-549 breast
# [33] = system: CCRF-CEM leukemia
# [34] = system: HCC-2998 colon
# [35] = system: KM12 colon
# [36] = system: EKVX NSCLC
# [37] = system: RPMI-8226 leukemia
# [38] = system: NCI-H226 lung
# [39] = system: SF-268 CNS
# [40] = system: A498 renal
# [41] = system: SW-620 colon
# [42] = system: HS 578T breast
# [43] = system: ACHN renal
# [44] = system: HCT-116 colon
# [45] = system: 786-0 renal
# [46] = system: SK-MEL-5 melanoma
# [47] = system: OVCAR-4 ovarian
# [48] = system: UO-31 renal
# [49] = system: TK-10 renal
# [50] = system: HT29 colon
# [51] = system: LOX IMVI melanoma
# [52] = system: NCI/ADR-RES ovarian
# [53] = system: NCI-H23 lung
# [54] = system: CAKI-1 renal
# [55] = system: UACC-257 melanoma
# [56] = system: MCF7 breast
# [57] = system: MDA-MB-231 breast
# [58] = system: HCT-15 colon
# [59] = system: NCI-H522 lung
structure (smiles),measurement,setting,value
O=C1CCCCC1=C(I)I,TGI,[1],31.6 µM
same,TGI,[2],95.8 µM
same,TGI,[3],> 100 µM
same,TGI,[4],> 100 µM
same,TGI,[5],31.3 µM
same,TGI,[6],30.3 µM
same,TGI,[7],> 100 µM
same,TGI,[8],30.9 µM
same,TGI,[9],58.3 µM
same,TGI,[10],33.9 µM
same,TGI,[11],30.2 µM
same,TGI,[12],31.8 µM
same,TGI,[13],30.5 µM
same,TGI,[14],65.8 µM
same,TGI,[15],44.1 µM
same,TGI,[16],24.9 µM
same,TGI,[17],26.2 µM
same,TGI,[18],30.4 µM
same,TGI,[19],36.6 µM
same,TGI,[20],46.8 µM
same,TGI,[21],47.1 µM
same,TGI,[22],56.8 µM
same,TGI,[23],34.1 µM
same,TGI,[24],55.6 µM
same,TGI,[25],28.7 µM
same,TGI,[26],32.3 µM
same,TGI,[27],31.8 µM
same,TGI,[28],27.5 µM
same,TGI,[29],57.5 µM
same,TGI,[30],29 µM
same,TGI,[31],28.8 µM
same,TGI,[32],26.8 µM
same,TGI,[33],73.3 µM
same,TGI,[34],29.5 µM
same,TGI,[35],28.8 µM
same,TGI,[36],4.1 µM
same,TGI,[37],53.4 µM
same,TGI,[38],42.7 µM
same,TGI,[39],57.2 µM
same,TGI,[40],35.5 µM
same,TGI,[41],31.2 µM
same,TGI,[42],> 100 µM
same,TGI,[43],31.7 µM
same,TGI,[44],30.9 µM
same,TGI,[45],31.9 µM
same,TGI,[46],33 µM
same,TGI,[47],24.5 µM
same,TGI,[48],30.5 µM
C/C(=N\Nc1ccccc1Br)c1cccc(/C(C)=N/Nc2ccccc2Br)n1,TGI,[1],> 100 µM
same,TGI,[2],> 100 µM
same,TGI,[3],> 100 µM
same,TGI,[4],> 100 µM
same,TGI,[49],> 100 µM
same,TGI,[5],> 100 µM
same,TGI,[6],> 100 µM
same,TGI,[7],> 100 µM
same,TGI,[8],> 100 µM
same,TGI,[50],> 100 µM
same,TGI,[9],> 100 µM
same,TGI,[11],> 100 µM
same,TGI,[12],> 100 µM
same,TGI,[13],42.4 µM
same,TGI,[14],> 100 µM
same,TGI,[51],> 100 µM
same,TGI,[15],> 100 µM
same,TGI,[16],> 100 µM
same,TGI,[52],> 100 µM
same,TGI,[17],> 100 µM
same,TGI,[18],> 100 µM
same,TGI,[19],> 100 µM
same,TGI,[20],> 100 µM
same,TGI,[21],36.8 µM
same,TGI,[23],> 100 µM
same,TGI,[24],> 100 µM
same,TGI,[26],> 100 µM
same,TGI,[27],> 100 µM
same,TGI,[53],> 100 µM
same,TGI,[28],> 100 µM
same,TGI,[29],> 100 µM
same,TGI,[54],> 100 µM
same,TGI,[55],> 100 µM
same,TGI,[30],> 100 µM
same,TGI,[31],> 100 µM
same,TGI,[32],> 100 µM
same,TGI,[33],> 100 µM
same,TGI,[34],> 100 µM
same,TGI,[56],> 100 µM
same,TGI,[35],> 100 µM
same,TGI,[36],> 100 µM
same,TGI,[37],> 100 µM
same,TGI,[38],> 100 µM
same,TGI,[39],> 100 µM
same,TGI,[57],> 100 µM
same,TGI,[40],> 100 µM
same,TGI,[41],> 100 µM
same,TGI,[43],> 100 µM
same,TGI,[44],> 100 µM
same,TGI,[45],> 100 µM
same,TGI,[46],> 100 µM
same,TGI,[47],> 100 µM
same,TGI,[48],> 100 µM
same,TGI,[58],> 100 µM
C/C(=N\NC(=S)NC1CCCC1)c1ccccn1,TGI,[1],> 100 µM
same,TGI,[4],> 22.4 µM
same,TGI,[49],> 100 µM
same,TGI,[5],35.4 µM
same,TGI,[6],10.3 µM
same,TGI,[7],> 53.6 µM
same,TGI,[8],> 100 µM
same,TGI,[50],> 100 µM
same,TGI,[10],7.8 µM
same,TGI,[11],> 100 µM
same,TGI,[12],> 100 µM
same,TGI,[13],29.1 µM
same,TGI,[14],> 43.6 µM
same,TGI,[51],17.8 µM
same,TGI,[59],42.4 µM
same,TGI,[15],> 19.9 µM
same,TGI,[16],> 100 µM
same,TGI,[18],> 44.1 µM
same,TGI,[19],7.52 µM
same,TGI,[20],> 75.6 µM
same,TGI,[21],> 100 µM
same,TGI,[22],> 100 µM
same,TGI,[23],> 43 µM
same,TGI,[24],> 100 µM
same,TGI,[25],> 23.9 µM
same,TGI,[26],15.7 µM
same,TGI,[27],> 100 µM
same,TGI,[53],> 100 µM
same,TGI,[28],> 28.6 µM
same,TGI,[29],> 81.9 µM
same,TGI,[54],> 100 µM
same,TGI,[31],26.8 µM
same,TGI,[32],63.9 µM
same,TGI,[34],> 100 µM
same,TGI,[56],28.7 µM
same,TGI,[35],> 83.2 µM
same,TGI,[36],> 100 µM
same,TGI,[37],1.99 µM
same,TGI,[38],15 µM
same,TGI,[39],> 100 µM
same,TGI,[57],> 57.2 µM
same,TGI,[40],> 28 µM
same,TGI,[41],> 100 µM
same,TGI,[42],> 100 µM
same,TGI,[43],20.1 µM
same,TGI,[44],3.48 µM
same,TGI,[45],> 100 µM
same,TGI,[46],13.2 µM
same,TGI,[47],> 100 µM
same,TGI,[48],22.3 µM
same,TGI,[58],> 100 µM
Cc1nn(C(=O)c2ccncc2)c2c1C(c1ccc(Cl)cc1)SC(N)=N2 (configuration not stated),TGI,[1],> 10 µM
same,TGI,[2],> 10 µM
same,TGI,[3],> 10 µM
same,TGI,[4],> 10 µM
same,TGI,[49],> 10 µM
same,TGI,[5],> 10 µM
same,TGI,[6],> 10 µM
same,TGI,[7],> 10 µM
same,TGI,[8],> 10 µM
same,TGI,[50],> 10 µM
same,TGI,[9],> 10 µM
same,TGI,[10],> 10 µM
same,TGI,[12],> 10 µM
same,TGI,[13],> 10 µM
same,TGI,[14],> 10 µM
same,TGI,[51],> 10 µM
same,TGI,[15],> 10 µM
same,TGI,[16],> 10 µM
same,TGI,[52],> 10 µM
same,TGI,[17],> 10 µM
same,TGI,[18],> 10 µM
same,TGI,[19],> 10 µM
same,TGI,[20],> 10 µM
same,TGI,[21],> 10 µM
same,TGI,[23],> 10 µM
same,TGI,[24],> 10 µM
same,TGI,[25],> 10 µM
same,TGI,[26],> 10 µM
same,TGI,[27],> 10 µM
same,TGI,[53],> 10 µM
same,TGI,[28],> 10 µM
same,TGI,[29],> 10 µM
same,TGI,[54],> 10 µM
same,TGI,[55],> 10 µM
same,TGI,[30],> 10 µM
same,TGI,[31],> 10 µM
same,TGI,[32],> 10 µM
same,TGI,[33],> 10 µM
same,TGI,[34],> 10 µM
same,TGI,[56],> 10 µM
same,TGI,[35],> 10 µM
same,TGI,[36],> 10 µM
same,TGI,[37],> 10 µM
same,TGI,[38],> 10 µM
same,TGI,[39],> 10 µM
same,TGI,[57],> 10 µM
same,TGI,[41],> 10 µM
same,TGI,[42],> 10 µM
same,TGI,[43],> 10 µM
same,TGI,[44],> 10 µM
same,TGI,[45],> 10 µM
same,TGI,[46],> 10 µM
same,TGI,[47],> 10 µM
same,TGI,[58],> 10 µM
